Read-outs that look alike come from different tables or passages of the source. Marks after values point to notes of the source that are not given here.
Assays:
[1] = cited from earlier work; for Ratio of tumor level/plasma level: after Onivyde treatment at 72 h; for Amount in Tumor: patient biopsies after Onivyde treatment at 72 h (13 patients); for Amount in Plasma: patients after Onivyde treatment at 72 h (13 patients)
[2] = Phase 1/2a study, plasma pharmacokinetics of Conjugate 1 and SN-38; assay type: in vivo, human
Description: (§1) In a Phase 1/2a study of Conjugate 1, patients received weekly Conjugate 1 treatment for 3 of 4 weeks in a 28-day cycle. The patients have histologically or cytologically confirmed advanced solid tumors. Their tumor types included anus, breast, cholangiocarcinoma, colon, Ewing sarcoma, liver, lung, neuroendocrine (unknown primary), ovary, pancreas, salivary gland, and sarcoma. They have received one or more prior lines of anticancer therapy. The patients received flat dosings or dosings based on body surface area (BSA). The doses included 30 mg, 60 mg, 120 mg, 240 mg, 360 mg, 175 mg/m^2, and 200 mg/m^2. […] BSA-based dosing will be used for future studies.
To study pharmacokinetics (PK) profile, multiple plasma samples were collected to measure Conjugate 1 and SN-38 concentrations. […] Elimination half-life was ˜10 hours across all dose ranges. Free SN-38 levels were generally low. AUC is <2% of the conjugate (Conjugate 1) AUC.

[3] = Levels of Conjugate 1 and SN-38 in patient tumor biopsy and plasma at 24 h; assay type: in vivo, human
Experimental: A pancreatic cancer patient received Conjugate 1 at a dose of 150 mg/m^2 and underwent a tumor biopsy to determine Conjugate 1 and SN-38 levels in tumor and plasma. Samples were taken 24 h after the second dose of 150 mg/m^2 Conjugate 1 from a liver metastasis.
Conjugate 1 and SN-38 levels in tumor are much higher than the levels in plasma.

[4] = Tumor exposure of Conjugate 1 and SN-38 in H1975 mouse xenograft model at 24 h; assay type: in vivo; conditions: for SN-38 in tumor at 24 h: H1975 model; for concentration at 24 h: mouse, in vivo
[5] = Phase 1/2a study, maximum tolerated dose and adverse events; assay type: in vivo, human
Description: as §1
AEs are well-managed with dose modification.

[6] = system: advanced solid tumors; assay: Phase 1/2a study, tumor response; assay type: in vivo, human
Description: as §1
120-360 mg flat dose and 175 mg/m2 BSA dose were associated with stable disease that was maintained for ≥12 weeks.

[7] = system: H1975 (NSCLC) mouse xenograft; assay: Efficacy in H1975 (NSCLC) mouse xenograft model; assay type: in vivo
[8] = patients dosed with Conjugate 1, plasma

Compound: CCc1c2c(nc3ccc(OC(=O)N4CCC(N5CCCCC5)CC4)cc13)-c1cc3c(c(=O)n1C2)COC(=O)[C@]3(O)CC [Irinotecan]
- Ratio of tumor level/plasma level [1]: About 0.5
- Ratio of tumor level/plasma level ([1]; listed as irinotecan): about ½
- Amount in Tumor [1]: 4043 nM
- Amount in Plasma [1]: 7.921 µM

Compound: CCc1c2c(nc3ccc(O)cc13)-c1cc3c(c(=O)n1C2)COC(=O)[C@]3(O)CC [SN-38, reference compound]
- Free SN-38 AUC as share of the conjugate (Conjugate 1) AUC [2, 8]: < 2%
- Free SN-38 levels / systemic exposure to free SN-38 [2, 8]: generally low
- Free SN-38 levels / systemic exposure to free SN-38 ([2]; patients dosed with Conjugate 1, plasma, listed as SN-28): low
- Amount in Plasma ([3]; at 24 h, average of 5 patients dosed at 175 mg/m^2 Conjugate 1): 25.5* nM
- Ratio of tumor level/plasma level ([3]; at 24 h, tumor at 150 mg/m^2, plasma at 175 mg/m^2 Conjugate 1): About 3.4
- Amount in Tumor ([3]; pancreatic cancer patient, liver metastasis biopsy, 24 h after the second dose of 150 mg/m^2 Conjugate 1): 86.6 nM
- SN-38 in tumor at 24 h ([4]; Conjugate 1 50 mg/kg): 98 nM
- SN-38 in tumor at 24 h ([4]; Conjugate 1 100 mg/kg): 18.4 nM
- SN-38 in tumor at 24 h ([4]; Conjugate 1 150 mg/kg): 221 nM
- Ratio of tumor level/plasma level [1]: About 4.2
- Amount in Tumor [1]: 24.5 nM
- Amount in Plasma [1]: 0.0059 µM

Compound: CCc1c2c(nc3ccc(OC(=O)N4CCC(CCn5ccc6cc(-n7c(O)nnc7-c7cc(C(C)C)c(O)cc7O)ccc65)CC4)cc13)-c1cc3c(c(=O)n1C2)COC(=O)[C@]3(O)CC [Conjugate 1, (S)-4,11-diethyl-4-hydroxy-3,14-dioxo-3,4,12,14-tetrahydro-1H-pyrano[3′,4′:6,7]indolizino[1,2-b]quinolin-9-yl 4-(2-(5-(3-(2,4-dihydroxy-5-isopropylphenyl)-5-hydroxy-4H-1,2,4-triazol-4-yl)-1H-indol-1-yl)ethyl)piperidine-1-carboxylate]
- half-life ([2]; human, in vivo, Elimination half-life): ~10 h
- Dose proportionality of PK ([2]; patients, 30 mg to 200 mg/m^2): non-linear PK at lower doses, but greater proportionality was observed at higher doses
- Linker stability in circulation ([2]; patients, PK analyses): stable in circulation
- Maximum tolerated dose (MTD), monotherapy ([5]; patients with advanced solid tumors, weekly for 3 of 4 weeks in a 28-day cycle): 175 mg/m^2
- Most common AEs ([5]; patients, Phase 1): nausea, fatigue, diarrhea, vomiting and alopecia
- Overall safety / adverse event profile ([5]; patients, Phase 1): safe and has an expected adverse (AE) event profile
- Time stable disease was maintained ([6]; 120-360 mg flat dose and 175 mg/m2 BSA dose): ≥ 12 weeks
- Patients achieving partial response (PR; reduction of tumor size by 30% or more) ([6]; of the 17 patients who received Conjugate 1 treatment): one
- SN-38 tumor level relative to SN-38 tumor level of patients who received Onivyde ([3]; human, in vivo, 24 h): about 3.5 fold
- concentration at 24 h ([4]; 50 mg/kg): 163 nM
- concentration at 24 h ([4]; 100 mg/kg): 149 nM
- concentration at 24 h ([4]; 150 mg/kg): 4990 nM
- Efficacy in the xenograft model ([7]; weekly dose of 150 mg/kg): tumor regression
- Efficacy in the xenograft model ([7]; weekly doses of 72 mg/kg and 100 mg/kg): significant efficacy

Reference: patent US20220257777A1, “HSP90-BINDING CONJUGATES AND COMBINATION THERAPIES THEREOF” (TVA (ABC), LLC, priority 2019, published 2022)
